Assay results from article PMC12470154, “In Vitro Evaluation of Antimicrobial Amyloidogenic Peptides for the Treatment of Early and Mature Bacterial Biofilms” (International Journal of Molecular Sciences, 2025).

How the values were obtained:
[1] = test system: P. aeruginosa (2943 strain); assay: Antibacterial activity in liquid medium (optical density); type: cell-based, Pseudomonas aeruginosa; parameters: key to change of optical density vs negative control: ↓: Decrease in the parameter (optical density) compared to the negative control; −: No decrease in the parameter; ↑: Reverse effect (increase in the optical density compared to the control); conditions: 24 h, 37 °C; for change of optical density vs negative control: OD 595 nm
Description: To evaluate the antibacterial activity of peptides in liquid culture, a stationary-phase culture of the tested bacterial strain was diluted 100-fold in fresh medium containing peptides or gentamicin (positive control) at the specified concentrations. A total volume of 200 µL was added to each well of a 96-well round-bottom microtiter plate. After 24 h of incubation at 37 °C, the samples were transferred to a flat-bottom 96-well microtiter plate, and the optical density was measured at 595 nm. Separately, the optical density of medium containing peptides but no bacteria was measured. These values were used as baseline (zero) readings for subsequent data analysis.

[2] = test system: S. aureus (129B strain); assay: Mature biofilms, crystal violet staining; type: cell-based, Staphylococcus aureus; parameters: key: ↓: Decrease in the parameter (optical density) compared to the negative control; −: No decrease in the parameter; ↑: Reverse effect (increase in the optical density compared to the control); conditions: mature biofilm: peptide added after 24 h, further 24 h; 0.01-10 mg/mL
Description: (§1) After 24 h of incubation, the medium was removed. To assess the total biofilm biomass, the wells were rinsed with sterile PBS solution and stained with 0.1% crystal violet. The dye bound to the surface was then removed using 95% ethanol. To assess the presence of metabolically active cells, 0.3% MTT (PanEco Ltd., Moscow, Russia) solution was added to each well, and the plates were incubated at 37 °C for 2 h. After incubation, the MTT solution was removed, 150 µL of DMSO (Chimmed, Moscow, Russia) and 25 µL of glycine buffer were added to each well, and the plates were left at room temperature for 15 min. The resulting solutions were transferred to a flat-bottom 96-well plate, and optical density was measured at 595 nm.
(§2) A stationary-phase culture of the tested strain was diluted 100-fold in fresh medium (200 µL per well) and added to the wells of a 96-well round-bottom plate. […] After another 24 h, the medium was removed and the wells were rinsed with sterile PBS to eliminate planktonic cells. The procedures for assessing total biofilm biomass and cell metabolic activity using crystal violet and MTT assays were performed in the same manner as described above for early-stage biofilm experiments.

[3] = test system: E. coli (MG1655 strain); assay: Mature biofilms, crystal violet staining; type: cell-based, Escherichia coli; parameters: key: ↓: Decrease in the parameter (optical density) compared to the negative control; −: No decrease in the optical density; ↑: Reverse effect (increase in the optical density compared to the control); conditions: mature biofilm: peptide added after 24 h, further 24 h, 0.01-10 mg/mL
Description: as §1, §2

[4] = test system: MRSA (SA 180-F strain); assay: Mature biofilms, crystal violet staining; type: cell-based, methicillin-resistant Staphylococcus aureus; parameters: key: ↓: Decrease in the parameter (optical density) compared to the negative control; −: No decrease in the parameter; ↑: Reverse effect (increase in the optical density compared to the control); conditions: mature biofilm: peptide added after 24 h, further 24 h, 0.01-10 mg/mL
Description: as §1, §2

[5] = test system: S. aureus (129B strain); assay: Early biofilm formation, MTT assay; type: cell-based, Staphylococcus aureus; parameters: key: ↓: Decrease in the parameter (optical density) compared to the negative control; −: No decrease in the parameter; ↑: Reverse effect (increase in the optical density compared to the control); conditions: 24 h, 0.3% MTT 2 h 37 °C, OD 595 nm
Description: as §1

[6] = test system: E. coli (MG1655 strain); assay: Antibacterial activity in liquid medium (optical density); type: cell-based, Escherichia coli; conditions: 10 mg/mL
[7] = test system: S. aureus (129B strain); assay: Antibacterial activity on 0.7% agar (inhibition zone); type: cell-based, Staphylococcus aureus; parameters: key: +: The presence of a bacterial growth inhibition zone; −: The absence of a bacterial growth inhibition zone; conditions: drop on 0.7% agar, 24 h
Description: (§3) Drops of the samples were applied to the surface of solidified 0.7% agar at the concentrations indicated in Table 2 and Supplementary S2 (Figures S1–S4). After 24 h of incubation, the results were evaluated based on the presence or absence (+/−) of inhibition zones.
(§4) Once the agar solidified, drops of peptide samples at the concentrations 1, 0.1, 0.01, and 0.001 mg/mL were applied to the agar surface.

[8] = test system: E. coli (MG1655 strain); assay: as above; type: cell-based, Escherichia coli; parameters: key: +: The presence of a bacterial growth inhibition zone; −: The absence of a bacterial growth inhibition zone; conditions: drop on 0.7% agar, 24 h
Description: as §3, §4

[9] = test system: P. aeruginosa (2943 strain); assay: Mature biofilms, MTT assay; type: cell-based, Pseudomonas aeruginosa; parameters: key: ↓: Decrease in the parameter (optical density) compared to the negative control; −: No decrease in the optical density; ↑: Reverse effect (increase in the optical density compared to the control); conditions: mature biofilm: peptide added after 24 h, further 24 h, 0.01-10 mg/mL
Description: as §1, §2

[10] = test system: P. aeruginosa (2943 strain); assay: Mature biofilms, crystal violet staining; type: cell-based, Pseudomonas aeruginosa; parameters: key: ↓: Decrease in the parameter (optical density) compared to the negative control; −: No decrease in the optical density; ↑: Reverse effect (increase in the optical density compared to the control); conditions: mature biofilm: peptide added after 24 h, further 24 h, 0.01-10 mg/mL
Description: as §1, §2

[11] = test system: E. coli (MG1655 strain); assay: Early biofilm formation, MTT assay; type: cell-based, Escherichia coli; parameters: key: ↓: Decrease in the parameter (optical density) compared to the negative control; −: No decrease in the optical density; ↑: Reverse effect (increase in the optical density compared to the control); conditions: 24 h, 0.3% MTT 2 h 37 °C, OD 595 nm
Description: as §1

[12] = test system: P. aeruginosa (2943 strain); assay: Early biofilm formation, MTT assay; type: cell-based, Pseudomonas aeruginosa; conditions: for bacterial metabolic activity (MTT): 10 mg/mL; for concentration given with ↓ (MTT): 24 h
Description: as §1

| Sequence | change of optical density vs negative control [1] | change of optical density after crystal violet staining vs negative control [2] | change of optical density after crystal violet staining vs negative control [3] | change of optical density after crystal violet staining vs negative control [4] | change of optical density after MTT assay vs negative control [5] | antimicrobial activity relative to meropenem [6] | bacterial growth inhibition zone ([7]; 0.001 mg/mL) | bacterial growth inhibition zone ([7]; 0.01 mg/mL) | bacterial growth inhibition zone ([7]; 0.1 mg/mL) | bacterial growth inhibition zone ([7]; 1 mg/mL) | concentration given with ↓ (decrease in optical density) [1] [mg/mL] | bacterial growth inhibition zone ([8]; 0.001 mg/mL) | bacterial growth inhibition zone ([8]; 0.01 mg/mL) | bacterial growth inhibition zone ([8]; 0.1 mg/mL) | bacterial growth inhibition zone ([8]; 1 mg/mL) | change of optical density after MTT assay vs negative control [11] | bacterial metabolic activity (MTT) [12] | concentration given with ↓ (MTT) [12] [mg/mL] | other results |
| --- | --- | --- | --- | --- | --- | --- | --- | --- | --- | --- | --- | --- | --- | --- | --- | --- | --- | --- | --- |
| ITDFGIFIGLGGGGSRQIKIWFQNRRMKWKK [I31K^P] | ↑ | ↑ | − | ↑ | ↑ |  |  |  |  |  |  |  |  |  |  |  |  |  |  |
| RKKRRQRRRGGGGITDFGIFIGL [R23L^P] | ↓ (10 mg/mL) | ↑ |  |  | ↑ | comparable to that of meropenem | − | − | − | + | 10 | − | − | − | + |  |  |  |  |
| RKKRRQRRRGGGGVTDFGVFVEI [R23I^T, TAT cell-penetrating peptide linked via glycine linker to amyloidogenic fragment of S1 ribosomal protein of T. thermophilus] | ↓ (10 mg/mL) |  | − |  | ↑ |  | − | − | − | + | 10 | − | − | − | − |  |  |  | change of optical density after MTT assay vs negative control [9]: −; change of optical density after crystal violet staining vs negative control [10]: − |
| RKKRRQRRRGGGGVVVHINGGKFGGGGSRQIKIWFQNRRMKWKK [R44K^S] | ↓ (10 mg/mL) | ↑ |  | ↑ | ↑ | comparable to that of meropenem | − | − | − | + | 10 | − | − | − | − | − | reduced bacterial metabolic activity | 10 | change of optical density after MTT assay vs negative control ([9]; listed as R44K^P): −; change of optical density after crystal violet staining vs negative control ([10]; listed as R44K^P): −; change of optical density after crystal violet staining vs negative control ([3]; listed as R44K^P): − |
| VTDFGVFVEIGGGGSRQIKIWFQNRRMKWKK [V31K^T, amyloidogenic fragment of S1 of T. thermophilus linked via glycine-rich linker to antennapedia peptide] | − | ↑ |  |  | ↑ |  | − | − | − | − | 10 | − | − | − | − | − | reduced bacterial metabolic activity | 10 | change of optical density after MTT assay vs negative control ([9]; listed as V31K^S): −; change of optical density vs negative control ([1]; listed as V31K^S): ↓ (10 mg/mL); change of optical density after crystal violet staining vs negative control ([3]; listed as V31K^S): −; change of optical density after crystal violet staining vs negative control ([4]; listed as V31K^S): ↑; bacterial growth inhibition zone ([8]; 1 mg/mL, listed as V31K^S): + |
